In ChEMBL document CHEMBL3885861, “Open TG-GATES”:

Species: Rattus norvegicus
Assay: Open TG-GATES - Regimen: Single
Type: toxicity, organism-based, Sprague-Dawley
Parameters: regimen Single, gender Male, age 6 weeks
Settings: in vivo, po, 30 mg/kg, route gavage, dose level High; for APTT / Bas / Eos / Fbg / Hb / Ht / Lym / MCH / MCHC / MCV / Mono / Neu / PT / Plat / RBC / Ret / WBC: tissue Blood; for KIDNEY_L / KIDNEY_R / KIDNEY_TOTAL: tissue Kidney; for LIVER: tissue Liver; for A/G / ALP / ALT / AST / BUN / CRE / Ca / Cl / DBIL / GLC / IP / K / LDH / Na / PL / RALB / TBIL / TC / TG / TP / gamma-GTP: tissue Plasma

## Cn1cnc([N+](=O)[O-])c1Sc1ncnc2nc[nH]c12 [AZATHIOPRINE]
9 h
  TERMINAL_BW: 184.1 g
  APTT: 22 s
  Bas: 0%
  Eos: 0.8%
  Fbg: 328.4 mg/dL
  Hb: 12.7 g/dL
  Ht: 38.7%
  Lym: 74.4%
  MCH: 21.3 pg
  MCHC: 32.9%
  MCV: 64.9 fL
  Mono: 2.8%
  Neu: 20.6%
  PT: 15.5 s
  Plat: 102.9 x10_4/uL
  RBC: 598 x10_4/ul
  Ret: 9.2%
  WBC: 79 x10_2/uL
  KIDNEY_L: 0.8 g
  KIDNEY_R: 0.9 g
  KIDNEY_TOTAL: 1.7 g
  LIVER: 7.5 g
  A/G: 1.2
  ALP: 1634.6 IU/L
  ALT: 35.4 IU/L
  AST: 77 IU/L
  BUN: 11.4 mg/dL
  CRE: 0.1 mg/dL
  Ca: 10.5 mg/dL
  Cl: 106 meq/L
  DBIL: 0.002 mg/dL
  GLC: 190 mg/dL
  IP: 9.4 mg/dL
  K: 4.5 meq/L
  LDH: 231.8 IU/L
  Na: 140.8 meq/L
  PL: 140.2 mg/dL
  RALB: 2.9 g/dL
  TBIL: 0.01 mg/dL
  TC: 85.8 mg/dL
  TG: 37.2 mg/dL
  TP: 5.4 g/dL
  gamma-GTP: 1.2 IU/L
24 h
  TERMINAL_BW: 199.8 g
  APTT: 19.8 s
  Bas: 0%
  Eos: 0.8%
  Fbg: 345.2 mg/dL
  Hb: 13 g/dL
  Ht: 38.7%
  Lym: 86%
  MCH: 21.7 pg
  MCHC: 33.6%
  MCV: 64.6 fL
  Mono: 1.8%
  Neu: 10.4%
  PT: 15 s
  Plat: 125.5 x10_4/uL
  RBC: 599 x10_4/ul
  Ret: 7.7%
  WBC: 68.5 x10_2/uL
  KIDNEY_L: 0.9 g
  KIDNEY_R: 0.9 g
  KIDNEY_TOTAL: 1.8 g
  LIVER: 9.1 g
  A/G: 1.2
  ALP: 1513.8 IU/L
  ALT: 44.2 IU/L
  AST: 73.6 IU/L
  BUN: 15.4 mg/dL
  CRE: 0.1 mg/dL
  Ca: 11.1 mg/dL
  Cl: 105.2 meq/L
  DBIL: 0 mg/dL
  GLC: 190.8 mg/dL
  IP: 7.6 mg/dL
  K: 4.2 meq/L
  LDH: 210.4 IU/L
  Na: 142 meq/L
  PL: 161.2 mg/dL
  RALB: 3.1 g/dL
  TBIL: 0.014 mg/dL
  TC: 102.6 mg/dL
  TG: 39.4 mg/dL
  TP: 5.7 g/dL
  gamma-GTP: 1.4 IU/L
